Reference: patent US20220064195A1, “SYNTHETIC I2 IMIDAZOLINE RECEPTOR LIGANDS FOR PREVENTION OR TREATMENT OF HUMAN BRAIN DISORDERS” (Universitat de Barcelona, priority 2018, published 2022)

What was measured:
[1] = in vitro; conditions: pig, PAMPA
[2] = for CNS Prediction: predictive penetration in the CNS from PAMPA-BBB Pe

| SMILES | Papp [1] [×10⁻⁶ cm/s] | CNS Prediction [2] | Permeability (Pe) Experimental value ± SD (n = 3) ([2]; PAMPA-BBB, PBS:EtOH (70:30), three experiments in triplicate) |
| --- | --- | --- | --- |
| CCOP(=O)(OCC)[C@]1(c2ccccc2)N=C[C@H]2C(=O)N(CCc3ccc(F)cc3)C(=O)[C@H]21 (racemic) [Compound I-36, Diethyl (1RS,3aSR,6aSR)-5-(4-fluorophenethyl)-4,6-dioxo-1-phenyl-1,3a,4,5,6,6a-hexahydropyrrolo[3,4-c]pyrrole-1-phosphonate] | 7.2 ± 0.45 | CNS+ (compounds of high BBB permeation (CNS+): Pe (10^−6 cm s^−1)>5,179) |  |
| CCOP(=O)(OCC)[C@]1(c2ccccc2)N=C[C@H]2C(=O)N(c3ccc(F)cc3)C(=O)[C@H]21 (racemic) [Compound I-37, Diethyl (1RS,3aSR,6aSR)-5-(4-fluorophenyl)-4,6-dioxo-1-phenyl-1,3a,4,5,6,6a-hexahydropyrrolo[3,4-c]pyrrole-1-phosphonate] | 3.2 ± 0.2 | CNS+/− (compounds of uncertain BBB permeation (CNS+/−): 5,179>Pe (10^−6 cm s^−1)>2,083) |  |
| CCOP(=O)(OCC)[C@]1(c2ccccc2)N=C[C@H]2C(=O)N(c3ccc(C(F)(F)F)cc3)C(=O)[C@H]21 (racemic) [Compound I-38, Diethyl (1RS,3aSR,6aSR)-4,6-dioxo-1-phenyl-5-[4-(trifluoromethyl)phenyl]-1,3a,4,5,6,6a-hexahydropyrrolo[3,4-c]pyrrole-1-phosphonate] | 5.6 ± 0.15 | CNS+ (compounds of high BBB permeation (CNS+): Pe (10^−6 cm s^−1)>5,179) |  |
| CCOP(=O)(OCC)[C@]1(c2ccccc2)N=C[C@H]2C(=O)N(c3ccc(Cl)c(Cl)c3)C(=O)[C@H]21 (racemic) [Compound I-44, Diethyl (1RS,3aSR,6aSR)-5-(3,4-dichlorophenyl)-4,6-dioxo-1-phenyl-1,3a,4,5,6,6a-hexahydropyrrolo[3,4-c]pyrrole-1-phosphonate] | 8.9 ± 0.3 | CNS+ (compounds of high BBB permeation (CNS+): Pe (10^−6 cm s^−1)>5,179) |  |
| CCOP(=O)(OCC)[C@]1(c2ccccc2)N=C[C@H]2C(=O)N(c3ccc(C)cc3)C(=O)[C@H]21 (racemic) [Compound I-45, Diethyl (1RS,3aSR,6aSR)-4,6-dioxo-1-phenyl-5-(p-tolyl)-1,3a,4,5,6,6a-hexahydropyrrolo[3,4-c]pyrrole-1-phosphonate] | 8.75 ± 0.5 | CNS+ (compounds of high BBB permeation (CNS+): Pe (10^−6 cm s^−1)>5,179) |  |
| CCOP(=O)(OCC)[C@@]1(Cc2ccccc2)N=C[C@H]2C(=O)N(c3ccccc3)C(=O)[C@H]21 (racemic) [Compound I-46, Diethyl (1RS,3aSR,6aSR)-1-benzyl-4,6-dioxo-5-phenyl-1,3a,4,5,6,6a-hexahydropyrrolo[3,4-c]pyrrole-1-phosphonate] | 6.9 ± 0.3 | CNS+ (compounds of high BBB permeation (CNS+): Pe (10^−6 cm s^−1)>5,179) |  |
| CCOP(=O)(OCC)[C@]1(c2ccccc2)N=C[C@H]2C(=O)N(c3ccc(Cl)cc3)C(=O)[C@H]21 (racemic) [Compound I-49, Diethyl (1RS,3aSR,6aSR)-5-(4-chlorophenyl)-4,6-dioxo-1-phenyl-1,3a,4,5,6,6a-hexahydropyrrolo[3,4-c]pyrrole-1-phosphonate] | 5.5 ± 0.03 | CNS+ (compounds of high BBB permeation (CNS+): Pe (10^−6 cm s^−1)>5,179) |  |
| CCCN1C(=O)[C@@H]2[C@@H](C=N[C@@]2(c2ccccc2)P(=O)(OCC)OCC)C1=O (racemic) [Compound I-51, Diethyl (1RS,3aSR,6aSR)-4,6-dioxo-1-phenyl-5-propyl-1,3a,4,5,6,6a-hexahydropyrrolo[3,4-c]pyrrole-1-phosphonate] | 6.2 ± 0.3 | CNS+ (compounds of high BBB permeation (CNS+): Pe (10^−6 cm s^−1)>5,179) |  |
| CCn1cc(C(=O)O)c(=O)c2cc(F)c(N3CCNCC3)cc21 [norfloxacine, reference compound] |  |  | 0.90 ± 0.02 10−6 cm s^−1 |
